Data on eleven molecules can be found in patent US9233927B2 (TEVA PHARMACEUTICAL INDUSTRIES, LTD., priority 2013, dated 2016).

Data set [1] can be described thus: Particle size distribution by Malvern laser diffraction (Mastersizer S). The data set is classed as physicochemical. The note with it: for D(0.9), PSD by Malvern / d(0.1), PSD by Malvern / d(0.5), PSD by Malvern: Modified Pilot Scale, 2.5 kg batch. The procedure:
The particle size distributions were measured by Malvern Laser Diffraction, using the Mastersizer S model. Laser diffraction relies on the fact that diffraction angle of light is inversely proportional to particle size. Properties of particles are measured and interpreted as measurements of a sphere (a sphere being the only shape that can be described by one unique number). In addition, laser diffraction calculates a particle size distribution based around volume terms, thus eliminating particle count from the determination of particle size. The Mastersizer S model measures particles using a single technique and a single range setting.
D(0.1) is the particle size, in microns, below which 10% by volume distribution of the population is found. D(0.5) is the particle size, in microns, below which 50% by volume distribution of the population is found. D(0.9) is the particle size, in microns, below which 90% by volume distribution of the population is found.

For data set [2] the following is noted: prior art U.S. Pat. No. 7,884,208, cited from earlier work.
The conditions of data set [3]: prior art U.S. Pat. No. 7,884,208; cited from earlier work.
Data set [4] has as its system acute experimental autoimmune encephalomyelitis (aEAE) model. As to conditions: U.S. Pat. No. 6,077,851; cited from earlier work.
Setting [5] is: Laboratory scale crystallization, 25 g crude.
[6] abbreviates: Production scale crystallization.
Setting [7] is: starting material of pilot scale process.

Read-outs that look alike come from different tables or passages of the source.

Turning to `CCN(C(=O)c1c([O-])c2c(Cl)cccc2n(C)c1=O)c1ccccc1.[Na+]` [Pilot Scale Batch A], in data set [1], the “D(0.9), PSD by Malvern” value came out at 33.8 um; the “d(0.1), PSD by Malvern” value was 3.3 um; the “d(0.5), PSD by Malvern” value came out at 12.9 um.

`CCN(C(=O)c1c([O-])c2c(Cl)cccc2n(C)c1=O)c1ccccc1.[Na+]` [Laboratory Scale Batch A]: the “PSD D(0.1)” value in data set [1] (setting [5]) amounted to 2.3 μm.

For the molecule `CCN(C(=O)c1c([O-])c2c(Cl)cccc2n(C)c1=O)c1ccccc1.[Na+]` [Example 14 of U.S. Pat. No. 7,884,208], in data set [2], the “size of 10% or more of the total amount by volume of the particles” value is “less than 5 microns”. The “Tapped Density (in words)” value in data set [3] is given as “undesired”.

For `CCN(C(=O)c1c([O-])c2c(Cl)cccc2n(C)c1=O)c1ccccc1.[Na+]` [Example 15 from U.S. Pat. No. 7,884,208], in data set [2] (Laboratory Scale 25 g batch), the “D(0.9), PSD by Malvern” value is 51.8 um; the “d(0.1), PSD by Malvern” value is listed as 6.1 um; the “d(0.5), PSD by Malvern” value is 21.2 um.

Consider `CCN(C(=O)c1c([O-])c2c(Cl)cccc2n(C)c1=O)c1ccccc1.[Na+]` [Pilot Scale Batch B], for which, in data set [1], the “D(0.9), PSD by Malvern” value worked out at 33.9 um; the “d(0.1), PSD by Malvern” value is listed as 4.1 um; the “d(0.5), PSD by Malvern” value is 13.5 um.

On to `CCN(C(=O)c1c([O-])c2c(Cl)cccc2n(C)c1=O)c1ccccc1.[Na+]` [Batch C], for which, in data set [1] (setting [6]), the “PSD D(0.1)” value stood at 4.1 μm, the “PSD D(0.5)” value worked out at 14.0 μm and the “PSD D(0.9)” value is 32.0 μm.

Regarding `CCN(C(=O)c1c([O-])c2c(Cl)cccc2n(C)c1=O)c1ccccc1.[Na+]` [Batch E], in data set [1] (setting [6]), the “PSD D(0.1)” value is 2.5 μm, the “PSD D(0.5)” value is 9.5 μm and the “PSD D(0.9)” value was 21.0 μm.

As for `CCN(C(=O)c1c([O-])c2c(Cl)cccc2n(C)c1=O)c1ccccc1.[Na+]` [Example 13 of U.S. Pat. No. 7,884,208], the “Tapped Density (in words)” value in data set [3] is given as “high”.

For `CCN(C(=O)c1c([O-])c2c(Cl)cccc2n(C)c1=O)c1ccccc1.[Na+]` [crude laquinimod sodium], in data set [1] (setting [7]), the “d(0.1)” value is listed as 1-2 μ, the “d(0.5)” value is listed as 5-11 μ and the “d(0.9)” value was 20-35 μ.

Regarding `CCN(C(=O)c1c(O)c2c(Cl)cccc2n(C)c1=O)c1ccccc1` [Laquinimod, N-ethyl-N-phenyl-1,2,-dihydro-4-hydroxy-5-chloro-1-methyl-2-oxoquinoline-3-carboxamide], the “effectiveness in aEAE model” value in data set [4] is “effective”.

Take `CCN(C(=O)c1c([O-])c2c(Cl)cccc2n(C)c1=O)c1ccccc1.[Na+]` [Laboratory Scale Batch B]: the “PSD D(0.1)” value in data set [1] (setting [5]) is 2.6 μm.
